Tested on: RL CD19+ tumor cells
Assay: Cytolytic function: co-culture of anti-CD19 CAR T cells with RL CD19+ tumor cells
Assay type: cell-based
Conditions: E:T 1:1
Protocol: To do so, CAR T cells were plated on ploy-D-lysine plates. CD19+ tumor cells transduced with IncuCyte® NucLight Red (Essen BioScience Inc.) were then added to the CAR T cells in addition to Compound C or vehicle control. Tumor cell number was measured over multiple days.
Treatment with CAR T cells in combination with either immunomodulatory compound led to lower tumor cell numbers than did CAR T cells alone or the compounds alone.

O=C1CC[C@H](N2Cc3c(OCc4ccc(CN5CCOCC5)cc4)cccc3C2=O)C(=O)N1 [Compound 2, (S)-3-[4-(4-morpholin-4-ylmethyl-benzyloxy)-1-oxo-1,3-dihydro-isoindol-2-yl]-piperidine-2,6-dione, reference compound]
RL tumor cell number vs CAR T cells alone or compound alone (compound at 0.01 μM with anti-CD19 CAR T cells): lower
RL tumor cell number vs CAR T cells alone or compound alone (compound at 0.1 μM with anti-CD19 CAR T cells): lower
